Test results taken from ChEMBL document CHEMBL4393680, “Design, synthesis and biological evaluation of novel thioquinazolinone-based 2-aminobenzamide derivatives as potent histone deacetylase (HDAC) inhibitors” (Eur J Med Chem, 2019).

Columns and labels:
A-375 [1] = assay: Antiproliferative activity against human A375 cells assessed as reduction in cell growth at 8 uM incubated for 72 hrs by CCK-8 assay relative to control; assay type: functional; settings: A-375, 72 h
A-375 [2] = assay: Antiproliferative activity against human A375 cells assessed as reduction in cell growth at 2 uM incubated for 72 hrs by CCK-8 assay relative to control; assay type: functional; settings: A-375, 72 h
HeLa [3] = assay: Antiproliferative activity against human HeLa cells assessed as reduction in cell growth at 8 uM incubated for 72 hrs by CCK-8 assay relative to control; assay type: functional
HeLa [4] = assay: Antiproliferative activity against human HeLa cells assessed as reduction in cell growth at 2 uM incubated for 72 hrs by CCK-8 assay relative to control; assay type: functional
A549 [5] = assay: Antiproliferative activity against human A549 cells assessed as reduction in cell growth at 8 uM incubated for 72 hrs by CCK-8 assay relative to control; assay type: functional; settings: A549, 72 h
A549 [6] = assay: Antiproliferative activity against human A549 cells assessed as reduction in cell growth at 2 uM incubated for 72 hrs by CCK-8 assay relative to control; assay type: functional; settings: A549, 72 h
HCT-116 [7] = assay: Antiproliferative activity against human HCT116 cells assessed as reduction in cell growth at 8 uM incubated for 72 hrs by CCK-8 assay relative to control; assay type: functional; settings: HCT-116, 72 h
HCT-116 [8] = assay: Antiproliferative activity against human HCT116 cells assessed as reduction in cell growth at 2 uM incubated for 72 hrs by CCK-8 assay relative to control; assay type: functional; settings: HCT-116, 72 h
SMMC-7721 [9] = assay: Antiproliferative activity against human SMMC7721 cells assessed as reduction in cell growth at 8 uM incubated for 72 hrs by CCK-8 assay relative to control; assay type: functional; settings: SMMC-7721, 72 h
SMMC-7721 [10] = assay: Antiproliferative activity against human SMMC7721 cells assessed as reduction in cell growth at 2 uM incubated for 72 hrs by CCK-8 assay relative to control; assay type: functional; settings: SMMC-7721, 72 h
HeLa [11] = assay: Antiproliferative activity against human HeLa cells assessed as reduction in cell growth incubated for 72 hrs by CCK-8 assay; assay type: functional, cell-based
A549 [12] = assay: Antiproliferative activity against human A549 cells assessed as reduction in cell growth incubated for 72 hrs by CCK-8 assay; assay type: functional, cell-based; settings: A549, 72 h
SMMC-7721 [13] = assay: Cell cycle arrest in human SMMC7721 cells assessed as accumulation at G0/G1 phase at 0.25 uM incubated for 48 hrs by propidium iodide staining based flow cytometry (Rvb=77%); assay type: functional
SMMC-7721 [14] = assay: Cell cycle arrest in human SMMC7721 cells assessed as accumulation at S phase at 0.25 uM incubated for 48 hrs by propidium iodide staining based flow cytometry (Rvb=6.83%); assay type: functional
SMMC-7721 [15] = assay: Cell cycle arrest in human SMMC7721 cells assessed as accumulation at G2/M phase at 0.25 uM incubated for 48 hrs by propidium iodide staining based flow cytometry (Rvb=16.17%); assay type: functional
SMMC-7721 [16] = assay: Cell cycle arrest in human SMMC7721 cells assessed as accumulation at G0/G1 phase at 1 uM incubated for 48 hrs by propidium iodide staining based flow cytometry (Rvb=77%); assay type: functional
SMMC-7721 [17] = assay: Cell cycle arrest in human SMMC7721 cells assessed as accumulation at S phase at 1 uM incubated for 48 hrs by propidium iodide staining based flow cytometry (Rvb=6.83%); assay type: functional
SMMC-7721 [18] = assay: Cell cycle arrest in human SMMC7721 cells assessed as accumulation at G2/M phase at 1 uM incubated for 48 hrs by propidium iodide staining based flow cytometry (Rvb=16.17%); assay type: functional
SMMC-7721 [19] = assay: Cell cycle arrest in human SMMC7721 cells assessed as accumulation at G0/G1 phase at 4 uM incubated for 48 hrs by propidium iodide staining based flow cytometry (Rvb=77%); assay type: functional
SMMC-7721 [20] = assay: Cell cycle arrest in human SMMC7721 cells assessed as accumulation at S phase at 4 uM incubated for 48 hrs by propidium iodide staining based flow cytometry (Rvb=6.83%); assay type: functional
SMMC-7721 [21] = assay: Cell cycle arrest in human SMMC7721 cells assessed as accumulation at G2/M phase at 4 uM incubated for 48 hrs by propidium iodide staining based flow cytometry (Rvb=16.17%); assay type: functional
SMMC-7721 [22] = assay: Induction of apoptosis in human SMMC7721 cells assessed as viable cells at 0.25 uM incubated for 48 hrs by Annexin-V-FITC/propidium iodide staining based flow cytometry (Rvb=93.5%); assay type: functional; settings: SMMC-7721, 48 h, read-out: Activity
SMMC-7721 [23] = assay: Induction of apoptosis in human SMMC7721 cells assessed as early apoptotic cells at 0.25 uM incubated for 48 hrs by Annexin-V-FITC/propidium iodide staining based flow cytometry (Rvb=2.88%); assay type: functional
SMMC-7721 [24] = assay: Induction of apoptosis in human SMMC7721 cells assessed as late apoptotic cells at 0.25 uM incubated for 48 hrs by Annexin-V-FITC/propidium iodide staining based flow cytometry (Rvb=1.73%); assay type: functional
SMMC-7721 [25] = assay: Induction of apoptosis in human SMMC7721 cells assessed as necrotic cells at 0.25 uM incubated for 48 hrs by Annexin-V-FITC/propidium iodide staining based flow cytometry (Rvb=1.88%); assay type: functional
SMMC-7721 [26] = assay: Induction of apoptosis in human SMMC7721 cells assessed as viable cells at 1 uM incubated for 48 hrs by Annexin-V-FITC/propidium iodide staining based flow cytometry (Rvb=93.5%); assay type: functional; settings: SMMC-7721, 48 h, read-out: Activity
SMMC-7721 [27] = assay: Induction of apoptosis in human SMMC7721 cells assessed as early apoptotic cells at 1 uM incubated for 48 hrs by Annexin-V-FITC/propidium iodide staining based flow cytometry (Rvb=2.88%); assay type: functional
SMMC-7721 [28] = assay: Induction of apoptosis in human SMMC7721 cells assessed as late apoptotic cells at 1 uM incubated for 48 hrs by Annexin-V-FITC/propidium iodide staining based flow cytometry (Rvb=1.73%); assay type: functional
SMMC-7721 [29] = assay: Induction of apoptosis in human SMMC7721 cells assessed as necrotic cells at 1 uM incubated for 48 hrs by Annexin-V-FITC/propidium iodide staining based flow cytometry (Rvb=1.88%); assay type: functional
SMMC-7721 [30] = assay: Induction of apoptosis in human SMMC7721 cells assessed as viable cells at 4 uM incubated for 48 hrs by Annexin-V-FITC/propidium iodide staining based flow cytometry (Rvb=93.5%); assay type: functional; settings: SMMC-7721, 48 h, read-out: Activity
SMMC-7721 [31] = assay: Induction of apoptosis in human SMMC7721 cells assessed as early apoptotic cells at 4 uM incubated for 48 hrs by Annexin-V-FITC/propidium iodide staining based flow cytometry (Rvb=2.88%); assay type: functional
SMMC-7721 [32] = assay: Induction of apoptosis in human SMMC7721 cells assessed as late apoptotic cells at 4 uM incubated for 48 hrs by Annexin-V-FITC/propidium iodide staining based flow cytometry (Rvb=1.73%); assay type: functional
SMMC-7721 [33] = assay: Induction of apoptosis in human SMMC7721 cells assessed as necrotic cells at 4 uM incubated for 48 hrs by Annexin-V-FITC/propidium iodide staining based flow cytometry (Rvb=1.88%); assay type: functional
NIH3T3 = assay: Cytotoxicity against mouse NIH/3T3 cells assessed as reduction in cell viability after 48 hrs by CCK8 assay; assay type: cell-based; settings: NIH3T3, 48 h
SMMC-7721 [34] = assay: Antiproliferative activity against human SMMC7721 cells assessed as reduction in cell growth incubated for 72 hrs by CCK-8 assay; assay type: functional, cell-based; settings: SMMC-7721, 72 h
A549 [35] = assay: Antitumor activity against human A549 cells xenografted in BALB/C mouse assessed as tumor growth inhibition at 25 mg/kg, ip bid for 21 days measured at 3 days interval during compound dosing relative to control; assay type: functional; settings: read-out: TGI
A-375 [36] = assay: Antiproliferative activity against human A375 cells assessed as reduction in cell growth incubated for 72 hrs by CCK-8 assay; assay type: functional, cell-based; settings: A-375, 72 h
Histone deacetylase 2 = Histone deacetylase 2 (Homo sapiens, UniProt Q92769); assay: Inhibition of human recombinant His-tagged HDAC2 ([…]) expressed in baculovirus infected insect cells using FLUOR DE LYS Green as substrate preincubated for 10 mins followed by substrate addition and measured after 30 mins by fluorescence method
Histone deacetylase 2, sequence (Q92769 whole entry): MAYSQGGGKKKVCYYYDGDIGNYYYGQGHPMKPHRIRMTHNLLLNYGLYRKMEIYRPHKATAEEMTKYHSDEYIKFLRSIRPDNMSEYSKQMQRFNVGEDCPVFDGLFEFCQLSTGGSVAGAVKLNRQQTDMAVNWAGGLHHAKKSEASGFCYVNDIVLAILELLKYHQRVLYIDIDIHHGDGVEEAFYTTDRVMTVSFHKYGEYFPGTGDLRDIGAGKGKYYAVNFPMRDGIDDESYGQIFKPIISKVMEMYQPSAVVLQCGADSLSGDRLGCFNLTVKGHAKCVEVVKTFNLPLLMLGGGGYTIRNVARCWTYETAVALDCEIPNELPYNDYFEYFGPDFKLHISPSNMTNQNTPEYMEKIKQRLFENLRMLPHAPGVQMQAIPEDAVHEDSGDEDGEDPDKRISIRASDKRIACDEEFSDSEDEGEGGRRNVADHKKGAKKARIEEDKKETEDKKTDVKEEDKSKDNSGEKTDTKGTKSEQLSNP

| SMILES | inhibition at 8 µM (A-375 [1]) [%] | inhibition at 2 µM (A-375 [2]) [%] | inhibition at 8 µM (HeLa [3]) [%] | inhibition at 2 µM (HeLa [4]) [%] | inhibition at 8 µM (A549 [5]) [%] | inhibition at 2 µM (A549 [6]) [%] | inhibition at 8 µM (HCT-116 [7]) [%] | inhibition at 2 µM (HCT-116 [8]) [%] | inhibition at 8 µM (SMMC-7721 [9]) [%] | inhibition at 2 µM (SMMC-7721 [10]) [%] | IC50 (HeLa [11]) [µM] | Activity (SMMC-7721 [13]) [%] | Activity (SMMC-7721 [14]) [%] | Activity (SMMC-7721 [15]) [%] | Activity (SMMC-7721 [16]) [%] | Activity (SMMC-7721 [17]) [%] | Activity (SMMC-7721 [18]) [%] | Activity (SMMC-7721 [19]) [%] | Activity (SMMC-7721 [20]) [%] | Activity (SMMC-7721 [21]) [%] | further results |
| --- | --- | --- | --- | --- | --- | --- | --- | --- | --- | --- | --- | --- | --- | --- | --- | --- | --- | --- | --- | --- | --- |
| Nc1ccccc1NC(=O)c1ccc(CNC(=O)OCc2cccnc2)cc1 [ENTINOSTAT] | 83.1 | 30.2 | 89.8 | 42.4 | 47.3 | 20 | 72.3 | 67.3 | 48.7 | 28.2 | 2.36 | 75.1 | 9.47 | 15.43 | 76.1 | 9.55 | 14.35 | 71.44 | 14.21 | 14.35 | IC50 (A549 [12]): 7.15 µM; viability at 0.25 µM (SMMC-7721 [22]): 91.4%; Activity (SMMC-7721 [23]): 4.13%; Activity (SMMC-7721 [24]): 3.31%; Activity (SMMC-7721 [25]): 1.18%; viability at 1 µM (SMMC-7721 [26]): 81.5%; Activity (SMMC-7721 [27]): 6.66%; Activity (SMMC-7721 [28]): 9.39%; Activity (SMMC-7721 [29]): 2.5%; viability at 4 µM (SMMC-7721 [30]): 53.9%; Activity (SMMC-7721 [31]): 12.5%; Activity (SMMC-7721 [32]): 27.9%; Activity (SMMC-7721 [33]): 5.64%; IC50 (NIH3T3): 2420 nM |
| CC(=O)Nc1ccc(C(=O)Nc2ccccc2N)cc1 [TACEDINALINE] | 33.5 | 13.4 | 32.4 | 13.4 | 29.1 | 23.5 | 44 | 13 | 29.1 | 23.5 | 18.8 | 76.9 | 15.37 | 7.73 | 75.86 | 17.41 | 6.73 | 70.12 | 11.67 | 18.21 | IC50 (SMMC-7721 [34]): > 32 µM; viability at 0.25 µM (SMMC-7721 [22]): 88.4%; Activity (SMMC-7721 [23]): 4.7%; Activity (SMMC-7721 [24]): 5.37%; Activity (SMMC-7721 [25]): 1.55%; viability at 1 µM (SMMC-7721 [26]): 86.5%; Activity (SMMC-7721 [27]): 4.99%; Activity (SMMC-7721 [28]): 6.72%; Activity (SMMC-7721 [29]): 1.74%; viability at 4 µM (SMMC-7721 [30]): 65.7%; Activity (SMMC-7721 [31]): 10.2%; Activity (SMMC-7721 [32]): 19.3%; Activity (SMMC-7721 [33]): 4.85%; IC50 (NIH3T3): 9050 nM; inhibition in vivo at 25 mg/kg (A549 [35]): 46.8% |
| Nc1ccc(F)cc1NC(=O)c1ccc(CNC(=O)/C=C/c2cccnc2)cc1 | 63.6 | 27.6 | 52 | 13.4 | 25.5 | 8 | 87.4 | 61.1 | 58.9 | 42.1 | 12.6 | 77.96 | 13.28 | 8.76 | 76.44 | 13.16 | 10.4 | 76.78 | 13.53 | 9.69 | IC50 (SMMC-7721 [34]): > 26 µM; IC50 (A-375 [36]): 4.21 µM; IC50 (Histone deacetylase 2): 310 nM; viability at 0.25 µM (SMMC-7721 [22]): 88.6%; Activity (SMMC-7721 [23]): 5.74%; Activity (SMMC-7721 [24]): 3.88%; Activity (SMMC-7721 [25]): 1.77%; viability at 1 µM (SMMC-7721 [26]): 84.7%; Activity (SMMC-7721 [27]): 5.09%; Activity (SMMC-7721 [28]): 7.88%; Activity (SMMC-7721 [29]): 2.34%; viability at 4 µM (SMMC-7721 [30]): 61.6%; Activity (SMMC-7721 [31]): 15.2%; Activity (SMMC-7721 [32]): 19.1%; Activity (SMMC-7721 [33]): 4.08%; IC50 (NIH3T3): 2370 nM |
